Assay results published in patent publication US20250270316A1, “PHARMACEUTICAL COMBINATION AND USE THEREOF” (TIANJIN LIPOGEN TECHNOLOGY CO., LTD, priority 2021, published 2025).
Values joined by “and” are separate entries in the source; they are usually repeats but may differ in a detail not shown here. Equal values may be shown once.

Key:
Type in all cases: in vivo, mouse
[1] = test system: colorectal cancer MC38 humanized CD274 cell; assay: Example 8: MC38 humanized CD274 xenograft model, RB0005 and Gardiquimod; details: i.t. every other day x3; RB0005 1 mg/kg, Gardiquimod 5 mg/kg, combination as single preparation
Experimental: (§1) Tumor cells were cultured and passaged, cells were collected at the logarithmic phase, and formulated into a concentration of (1.0×10^7) per milliliter of cell suspension with 0.1 ml (with a cell number of 1.0×10^6) being injected into the right flank of the mice, the tumor grew to a diameter of about 5 mm within about 10 days, and the model was successfully established, they were randomly divided into 8 groups.
(§2) Tumor weight inhibitory rate=[1−average tumor weight of experimental group (G2/G3/G4)/average tumor weight of negative control group G1)]×100%.
Anti-Tumor Effect of Pharmaceutical Combination Consisting of PD-L1 Inhibitor RB0005 and Other Types of TLR7/8 Agonists (Gardiquimod)
(§3) After a colorectal cancer MC38 humanized CD274 cell subcutaneously-Xenograft tumor model in mice was successfully established, random grouping was performed, and each group had 6-8 mice, which were administered once every two days with a total of 3 times.

[2] = test system: colorectal cancer MC38 humanized CD274 cell; assay: Example 7: MC38 humanized CD274 xenograft model, intraperitoneal vs intratumoral administration; details: every other day x3
Experimental: as §1, §2, §3

[3] = test system: colorectal carcinoma MC38 (humanized PD-1 model); assay: Example 2: humanized PD-1 MC38 subcutaneous xenograft tumor model in mice, RB0004 and Imiquimod; details: Imiquimod 5 mg/kg i.t., RB0004 10 mg/kg i.p.
Experimental: as §1, §2
The anti-tumor effect of a pharmaceutical combination composed of PD-1 inhibitor RB0004 and a TLR7/TLR8 agonist Imiquimod was tested using a xenograft tumor model, i.e., the inhibitory effect on the growth of subcutaneous xenograft tumor in mice.
After successfully establishing a humanized PD-1 subcutaneous xenograft tumor model of colorectal carcinoma MC38 in mice, they were randomly grouped with 8 mice per group and administered once every two days.

[4] = test system: colorectal cancer MC38 humanized PD1; assay: Example 10.1: MC38 humanized PD1 xenograft model, marketed PD-1 inhibitors and Imiquimod; details: i.t. every other day x3; PD-1 antibody 10 mg/kg, Imiquimod (LPG2005) 5 mg/kg, combinations as single preparation
Experimental: as §1, §2
10.1 Anti-Tumor Effect of Composite Preparation (Single Dosage Form) Consisting of a Marketed PD-1 or PD-L1 Inhibitor and a TLR7/8 Agonist Imiquimod
After a colorectal cancer MC38 humanized PD1 subcutaneous xenograft tumor model was successfully established, random grouping was performed, and each group had 6-8 mice, which were administered once every two days with a total of 3 times.

[5] = test system: colorectal cancer CT26 humanized CD274 cell; assay: Example 11: CT26 humanized CD274 xenograft model, LPG2006; details: CT26.sgcd274 CD274, i.t. every other day x3, Imiquimod 5 mg/kg
Experimental: as §1, §2
Combination LPG2006 (Single Dosage Form) Consisting of PD-L1 Inhibitor RB0005 and Imiquimod, CT26 Tumor Model
After a colorectal cancer CT26 humanized CD274 cell subcutaneous xenograft tumor model in mice was successfully established, random grouping was performed, and each group had 6-8 mice, which were administered once every two days with a total of 3 times.

[6] = test system: colorectal cancer MC38 humanized CD274 cell; assay: Example 12: MC38 humanized CD274 xenograft model, sequential administration of Imiquimod and RB0005; details: i.t.; RB0005 1 mg/kg, Imiquimod 5 mg/kg; G4 sequential: agonist first, PD-L1 inhibitor after 48 h, total of 3 times
Experimental: as §1, §2

[7] = test system: colorectal cancer MC38 humanized CD274 cell; assay: Example 6: MC38 humanized CD274 xenograft model, LPG2006 single dosage form with different Imiquimod doses; details: i.t. every other day x3
Experimental: as §1, §2, §3

[8] = test system: colorectal carcinoma MC38; assay: Example 1: MC38 subcutaneous xenograft tumor model in mice, RB0005 and Imiquimod; details: as of the end; i.t. every other day; RB0005 1 mg/kg, Imiquimod 5 mg/kg, combination in single dosage form; tumor volume >2000 mm^3 counted as death
Experimental: C57/BL6JNifdc mouse, female, body weight of 17-22 g, aged 6-8 weeks, SPF grade, purchased from Beijing Vital River Laboratory Animal Technology Co., Ltd. [Experimental Animal Quality Certificate No.: SCXK (Beijing) 2016-0006].
as §1, §2
The anti-tumor effect of a pharmaceutical combination composed of PD-L1 inhibitor RB0005 and a TLR7/TLR8 agonist Imiquimod (LPG2005) was tested using a xenograft tumor model, i.e., the inhibitory effect on the growth of subcutaneous xenograft tumor in mice.
After successfully establishing a subcutaneous xenograft tumor model of colorectal carcinoma MC38 in mice, it was randomly grouped with 6-8 mice per group. The mice were administered once every two days, with a total of three times followed by observation until 15 days.

colorectal cancer MC38 = assay: Example 3: MC38 xenograft tumor model in mice, RB0005 and different doses of Imiquimod; details: i.t. every other day x3; RB0005 1 mg/kg (G2), Imiquimod 5 mg/kg (G5), both in single dosage form (G8)
Experimental: as §1, §2
A colorectal cancer MC38 Xenograft tumor model in mice was used to test an anti-tumor effect of a pharmaceutical combination consisting of a PD-L1 inhibitor RB0005 and different doses of TLR7/TLR8 agonists Imiquimod, that is, the inhibitory effect on the growth of subcutaneous xenograft tumor in mice.
After a subcutaneous xenograft tumor model in mice was successfully established, random grouping was performed, and each group had 8 mice, which were administered once every two days.

[9] = test system: colorectal cancer MC38 humanized CD274 cell; assay: Example 10.2: MC38 humanized CD274 xenograft model, Durvalumab or RB0005 and Imiquimod; details: i.t. every other day x3; Durvalumab or RB0005 1 mg/kg, Imiquimod (LPG2005) 5 mg/kg, combinations as single preparation
Experimental: as §1, §2, §3

[10] = test system: colorectal cancer MC38 humanized CD274 cell; assay: Example 9: MC38 humanized CD274 xenograft model, RB0005 and Resiquimod; details: i.t. every other day x3; RB0005 1 mg/kg, Resiquimod 5 mg/kg, combination as single preparation
Experimental: as §1, §2
Anti-Tumor Effect of Pharmaceutical Combination Consisting of PD-L1 Inhibitor RB0005 and Other Types of TLR7/8 Agonists (Resiquimod)
as §3

[11] = intratumoral injection, RB0005 1 mg/kg (G4), Imiquimod 5 mg/kg (G6), LPG2006 single preparation (G8)
[12] = Imiquimod 6.32 mg/kg (G4), with RB0005 1 mg/kg in single dosage form (G7)
[13] = Imiquimod 20 mg/kg (G5), with RB0005 1 mg/kg in single dosage form (G8)
[14] = RB0005 1 mg/kg (G2), Imiquimod 2 mg/kg (G3), both in single dosage form (G6)

Molecule: CCNCc1nc2c(N)nc3ccccc3c2n1CC(C)(C)O [Gardiquimod]
- IRTW (tumor weight inhibition rate) [1]: 42% and 41.6%
- Tumor Weight [1]: 1.81 g

Molecule: CC(C)Cn1cnc2c(N)nc3ccccc3c21 [Imiquimod]
- Tumor Weight ([2]; intraperitoneal injection, RB0005 1 mg/kg (G3), Imiquimod 5 mg/kg (G5), LPG2006 single preparation (G7)): 3.74 g
- IRTW (tumor weight inhibition rate) [2, 11]: 23.5%
- Tumor Weight [2, 11]: 2.6 g
- IRTW (tumor weight inhibition rate) ([3]; every other day x3): 42.71%
- Tumor Weight ([3]; every other day x3): 3.62 g
- survival rate in mice ([3]; as of the end, every other day x3, combination in separate dosage forms): 40%
- growth of the tumor volume ([3]; vs solvent control): slower than that in the solvent control group
- Tumor Weight [4]: 1.93 g
- IRTW (tumor weight inhibition rate) ([5]; LPG2006 (RB0005 1 mg/kg + LPG2005 5 mg/kg)): 42%
- Tumor Weight ([5]; RB0005 1 mg/kg, LPG2006 single preparation): 1.05 g
- IRTW (tumor weight inhibition rate) [6]: 34.8%
- Tumor Weight [6]: 1.30 g
- IRTW (tumor weight inhibition rate) [7, 12]: 58.5%
- Tumor Weight [7, 12]: 2.0 g
- IRTW (tumor weight inhibition rate) [7, 13]: 47.4%
- Tumor Weight [7, 13]: 1.8 g
- IRTW (tumor weight inhibition rate) [7, 14]: 27.5%
- Tumor Weight [7, 14]: 2.5 g
- survival rate in mice [8]: 50%
- IRTW (tumor weight inhibition rate) (colorectal cancer MC38): 23.35%
- Tumor Weight (colorectal cancer MC38): 2.70 g
- IRTW (tumor weight inhibition rate) [9]: 48.8%
- Tumor Weight [9]: 0.73 g

Molecule: CCOCc1nc2c(N)nc3ccccc3c2n1CC(C)(C)O [Resiquimod]
- IRTW (tumor weight inhibition rate) [10]: 40% and 40.2%
- Tumor Weight [10]: 1.81 g

Molecule: Durvalumab: marketed anti PD-L1 monoclonal antibody
- IRTW (tumor weight inhibition rate) [9]: 21% and 20.9%
- Tumor Weight [9]: 1.13 g

Molecule: Sintilimab: marketed PD-1 inhibitor monoclonal antibody
- IRTW (tumor weight inhibition rate) [4]: 3.9%
- Tumor Weight [4]: 1.47 g

Molecule: Toripalimab: marketed PD-1 inhibitor monoclonal antibody
- IRTW (tumor weight inhibition rate) [4]: 49.7%
- Tumor Weight [4]: 0.92 g

B1: Camrelizumab: marketed PD-1 inhibitor monoclonal antibody (antibody, chains of the INN, looked up, V domains shown)
VH: EVQLVESGGGLVQPGGSLRLSCAASGFTFSSYMMSWVRQAPGKGLEWVATISGGGANTYYPDSVKGRFTISRDNAKNSLYLQMNSLRAEDTAVYYCARQLYYFDYWGQGTTVTVSS
VL: DIQMTQSPSSLSASVGDRVTITCLASQTIGTWLTWYQQKPGKAPKLLIYTATSLADGVPSRFSGSGSGTDFTLTISSLQPEDFATYYCQQVYSIPWTFGGGTKVEIK
- IRTW (tumor weight inhibition rate) [4]: 19.6%
- Tumor Weight [4]: 1.23 g

B2: Tislelizumab: marketed PD-1 inhibitor monoclonal antibody (antibody, chains of the INN, looked up)
heavy: QVQLQESGPGLVKPSETLSLTCTVSGFSLTSYGVHWIRQPPGKGLEWIGVIYADGSTNYNPSLKSRVTISKDTSKNQVSLKLSSVTAADTAVYYCARAYGNYWYIDVWGQGTTVTVSSASTKGPSVFPLAPCSRSTSESTAALGCLVKDYFPEPVTVSWNSGALTSGVHTFPAVLQSSGLYSLSSVVTVPSSSLGTKTYTCNVDHKPSNTKVDKRVESKYGPPCPPCPAPPVAGGPSVFLFPPKPKDTLMISRTPEVTCVVVAVSQEDPEVQFNWYVDGVEVHNAKTKPREEQFNSTYRVVSVLTVVHQDWLNGKEYKCKVSNKGLPSSIEKTISKAKGQPREPQVYTLPPSQEEMTKNQVSLTCLVKGFYPSDIAVEWESNGQPENNYKTTPPVLDSDGSFFLYSKLTVDKSRWQEGNVFSCSVMHEALHNHYTQKSLSLSLG
light: DIVMTQSPDSLAVSLGERATINCKSSESVSNDVAWYQQKPGQPPKLLINYAFHRFTGVPDRFSGSGYGTDFTLTISSLQAEDVAVYYCHQAYSSPYTFGQGTKLEIKRTVAAPSVFIFPPSDEQLKSGTASVVCLLNNFYPREAKVQWKVDNALQSGNSQESVTEQDSKDSTYSLSSTLTLSKADYEKHKVYACEVTHQGLSSPVTKSFNRGEC
- IRTW (tumor weight inhibition rate) [4]: 61.4%
- Tumor Weight [4]: 0.59 g
